Reference: US20250026742A1 (SUZHOU ARK BIOPHARMACEUTICAL CO., LTD., priority 2021, published 2025)
Where a name gives a salt, the structure may show the parent alone.

The compounds below were run against ATR kinase (Homo sapiens (Human), UniProt Q13535) (assay: ATR enzyme activity inhibition assay (HTRF)). Conditions: p53 substrate, full-length ATR enzyme.
Format: biochemical
Procedure: The inhibitory ability to ATR kinase for selected compounds was tested by the HTRF (Homogeneous Time-Resolved Fluorescence). In the reaction system, After the substrate p53 is phosphorylated by ATR, the anti-phospho-p53-Eu that serves as an energy donor and specifically binds to the phosphorylation site on p53 is added. Then, the anti-GST-d2 as an energy acceptor that specifically binds to the GST tag carried on p53 is added. […] The IC50 of the sample to be tested can be obtained through graphing and calculation.
Prepare various buffer systems required for the experiment: • 1. […] Prepare detection buffer: Dilute each of the anti-phospho-p53-Eu cryptate (Cisbio, Cat #61P08KA) and anti-GST-d2 (Cisbio, Cat #61GSTDLB) to 1 unit using HTRF detection buffer (Cisbio, Cat #62SDBRDF).
Powdered compounds were dissolved in DMSO to from a stock solution at a concentration of 10 mM. The solution of compounds to be tested at a concentration of […] was performed a 3-fold dilution for 10 concentrations with DMSO. […] 5 μL of ATR was added to each well accordingly. Each well is incubated at 25° C. for 10 min, added with 5 μL of reaction substrate, incubated at 25° C. for 90 min and added with 10 μL of detection solution. […] The inhibition curves of the compounds were made by the four-parameter […] regression equation of XLfit software, and the inhibition rates of the compounds were calculated.

ATR kinase, sequence (Q13535 whole entry): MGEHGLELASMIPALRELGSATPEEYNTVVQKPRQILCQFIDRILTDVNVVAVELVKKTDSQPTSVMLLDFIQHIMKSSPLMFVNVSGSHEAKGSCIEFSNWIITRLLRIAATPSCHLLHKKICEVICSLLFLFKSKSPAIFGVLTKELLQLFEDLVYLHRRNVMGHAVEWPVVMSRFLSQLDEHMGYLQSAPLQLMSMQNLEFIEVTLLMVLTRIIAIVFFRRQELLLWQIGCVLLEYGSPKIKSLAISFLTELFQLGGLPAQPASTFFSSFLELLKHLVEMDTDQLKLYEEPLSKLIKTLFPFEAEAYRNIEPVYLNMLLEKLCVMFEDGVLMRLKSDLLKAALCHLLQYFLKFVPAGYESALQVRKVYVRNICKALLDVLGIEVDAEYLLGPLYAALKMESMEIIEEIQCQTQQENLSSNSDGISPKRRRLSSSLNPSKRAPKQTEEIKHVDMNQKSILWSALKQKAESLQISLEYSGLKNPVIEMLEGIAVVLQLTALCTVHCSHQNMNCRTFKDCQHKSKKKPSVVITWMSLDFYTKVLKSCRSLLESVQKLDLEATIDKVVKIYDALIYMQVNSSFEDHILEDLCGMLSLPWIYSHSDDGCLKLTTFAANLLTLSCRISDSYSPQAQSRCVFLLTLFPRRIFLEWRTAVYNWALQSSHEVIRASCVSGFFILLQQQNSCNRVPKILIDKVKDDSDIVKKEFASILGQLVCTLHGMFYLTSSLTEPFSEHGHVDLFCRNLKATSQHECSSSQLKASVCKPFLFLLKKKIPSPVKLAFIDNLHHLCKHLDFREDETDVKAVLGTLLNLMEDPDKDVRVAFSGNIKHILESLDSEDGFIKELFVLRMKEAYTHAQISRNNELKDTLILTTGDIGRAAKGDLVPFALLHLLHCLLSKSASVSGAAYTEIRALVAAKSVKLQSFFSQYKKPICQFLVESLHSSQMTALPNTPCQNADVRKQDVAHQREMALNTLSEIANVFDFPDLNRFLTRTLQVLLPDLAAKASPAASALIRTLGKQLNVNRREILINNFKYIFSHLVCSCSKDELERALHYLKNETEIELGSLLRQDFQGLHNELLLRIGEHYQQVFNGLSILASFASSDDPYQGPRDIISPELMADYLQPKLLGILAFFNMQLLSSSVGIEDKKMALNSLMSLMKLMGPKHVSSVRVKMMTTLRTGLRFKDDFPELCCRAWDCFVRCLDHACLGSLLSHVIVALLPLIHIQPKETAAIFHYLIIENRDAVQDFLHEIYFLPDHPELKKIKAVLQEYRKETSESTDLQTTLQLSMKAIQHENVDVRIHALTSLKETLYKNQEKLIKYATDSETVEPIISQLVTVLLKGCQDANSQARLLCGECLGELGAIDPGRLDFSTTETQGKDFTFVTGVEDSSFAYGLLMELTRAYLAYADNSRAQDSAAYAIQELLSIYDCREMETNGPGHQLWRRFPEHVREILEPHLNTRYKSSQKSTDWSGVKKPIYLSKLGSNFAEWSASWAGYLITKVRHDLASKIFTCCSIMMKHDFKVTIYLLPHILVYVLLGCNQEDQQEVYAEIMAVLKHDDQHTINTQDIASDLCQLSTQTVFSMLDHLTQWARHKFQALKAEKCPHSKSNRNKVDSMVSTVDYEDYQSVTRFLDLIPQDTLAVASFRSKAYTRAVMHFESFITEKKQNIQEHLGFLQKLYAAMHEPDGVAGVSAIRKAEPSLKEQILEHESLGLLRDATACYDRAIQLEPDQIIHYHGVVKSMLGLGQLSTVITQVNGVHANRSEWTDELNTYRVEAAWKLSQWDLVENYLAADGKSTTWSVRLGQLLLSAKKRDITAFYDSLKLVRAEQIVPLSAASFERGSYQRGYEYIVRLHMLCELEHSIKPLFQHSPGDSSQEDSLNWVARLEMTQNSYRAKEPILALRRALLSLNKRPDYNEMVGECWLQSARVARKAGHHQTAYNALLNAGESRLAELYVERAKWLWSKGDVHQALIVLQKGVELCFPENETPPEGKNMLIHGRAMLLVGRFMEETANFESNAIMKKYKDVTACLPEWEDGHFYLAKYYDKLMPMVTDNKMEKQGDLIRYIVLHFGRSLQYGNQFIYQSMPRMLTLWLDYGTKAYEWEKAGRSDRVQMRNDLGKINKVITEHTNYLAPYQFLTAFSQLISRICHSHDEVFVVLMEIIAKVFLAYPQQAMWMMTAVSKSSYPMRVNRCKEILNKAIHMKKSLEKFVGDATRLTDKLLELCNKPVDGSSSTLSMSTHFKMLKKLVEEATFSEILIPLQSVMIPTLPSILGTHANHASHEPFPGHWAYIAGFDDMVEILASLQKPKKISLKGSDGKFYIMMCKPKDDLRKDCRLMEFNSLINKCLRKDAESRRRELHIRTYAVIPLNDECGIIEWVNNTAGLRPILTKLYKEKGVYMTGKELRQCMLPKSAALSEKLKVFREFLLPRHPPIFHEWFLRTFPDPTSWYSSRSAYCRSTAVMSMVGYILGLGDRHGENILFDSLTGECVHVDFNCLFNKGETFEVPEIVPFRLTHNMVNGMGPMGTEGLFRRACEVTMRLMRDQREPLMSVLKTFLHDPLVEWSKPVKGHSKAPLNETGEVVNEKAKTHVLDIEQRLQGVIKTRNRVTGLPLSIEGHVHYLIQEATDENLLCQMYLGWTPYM
ATR kinase, sequence (Q8WXE1 whole entry partner): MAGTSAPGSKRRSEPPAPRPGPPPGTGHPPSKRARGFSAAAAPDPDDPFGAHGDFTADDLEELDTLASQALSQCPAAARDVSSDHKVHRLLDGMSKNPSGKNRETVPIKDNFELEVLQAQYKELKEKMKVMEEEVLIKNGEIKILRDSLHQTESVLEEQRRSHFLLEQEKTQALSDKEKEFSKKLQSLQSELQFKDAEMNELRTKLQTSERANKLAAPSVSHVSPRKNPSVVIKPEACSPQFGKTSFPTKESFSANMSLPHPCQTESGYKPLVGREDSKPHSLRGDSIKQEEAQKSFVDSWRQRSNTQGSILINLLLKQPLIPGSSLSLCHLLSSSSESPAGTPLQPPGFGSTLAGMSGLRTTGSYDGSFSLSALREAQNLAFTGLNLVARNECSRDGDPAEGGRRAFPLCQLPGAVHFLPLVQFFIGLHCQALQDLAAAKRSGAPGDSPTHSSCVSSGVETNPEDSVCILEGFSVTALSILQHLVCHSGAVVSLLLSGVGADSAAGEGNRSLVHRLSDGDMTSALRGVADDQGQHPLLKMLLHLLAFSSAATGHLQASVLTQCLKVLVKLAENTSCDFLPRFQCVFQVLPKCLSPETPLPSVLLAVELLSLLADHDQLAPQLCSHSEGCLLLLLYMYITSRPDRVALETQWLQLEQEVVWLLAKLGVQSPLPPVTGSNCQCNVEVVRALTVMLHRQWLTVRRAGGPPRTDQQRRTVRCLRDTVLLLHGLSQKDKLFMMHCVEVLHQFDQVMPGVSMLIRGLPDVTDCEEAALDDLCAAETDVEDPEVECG

Row | IC50 [nM] | Compound
1 | 0.97 | CC(C)S(=O)(=O)c1ccc(-c2cnc(N)c(-c3cc(-c4ccc(CNC(=N)N)cc4)no3)n2)cc1 [Example 1, 1-(4-(5-(3-amino-6-(4-(isopropylsulfonyl)phenyl)pyrazin-2-yl)isoxazol-3-yl)benzyl)guanidine dihydrochloride]
2 | 2.79 | CNCc1ccc(-c2cc(-c3nc(-c4ccc(S(=N)(=O)C(C)C)cc4)cnc3N)on2)cc1 (stereo not drawn) [Example 2, (4-(5-amino-6-(3-(4-((methylamino)methyl)phenyl)isoxazol-5-yl)pyrazin-2-yl)phenyl)(imino)(isopropyl)-λ^6-sulfoxide]
3 | 0.83 | CC(C)S(=O)(=O)c1ccc(-c2cnc(N)c(-c3cc(-c4ccc(CNC(=N)N)cc4F)no3)n2)cc1 [Example 4, 1-(4-(5-(3-amino-6-(4-isopropylsulfonyl)phenyl)pyrazin-2-yl)isoxazol-3-yl)-3-fluorobenzyl)guanidine dihydrochloride]
4 | 2.32 | CC(C)S(=O)(=O)c1ccc(-c2cnc(N)c(-c3cc(-c4ccc(CNC(=O)NC5CC5)cc4)no3)n2)cc1 [Example 5, 1-(4-(5-(3-amino-6-(4-(isopropylsulfonyl)phenyl)pyrazin-2-yl)isoxazol-3-yl)benzyl)-3-cyclopropylurea]
5 | 2.9 | CCNC(=O)NCc1ccc(-c2cc(-c3nc(-c4ccc(S(=O)(=O)C(C)C)cc4)cnc3N)on2)cc1 [Example 6, 1-(4-(5-(3-amino-6-(4-(isopropylsulfonyl)phenyl)pyrazin-2-yl)isoxazol-3-yl)benzyl)-3-ethylurea]
6 | 1.04 | CNC(=O)NCc1ccc(-c2cc(-c3nc(-c4ccc(S(=O)(=O)C(C)C)cc4)cnc3N)on2)cc1 [Example 7, 1-(4-(5-(3-amino-6-(4-(isopropylsulfonyl)phenyl)pyrazin-2-yl)isoxazol-3-yl)benzyl)-3-methylurea]
7 | 3.64 | CC(C)S(=O)(=O)c1ccc(-c2cnc(N)c(-c3cc(-c4ccc(CNS(N)(=O)=O)cc4)no3)n2)cc1 [Example 8, 3-(3-(4-((aminosulfonyl)aminomethylene)phenyl)isoxazol-5-yl)-5-(4-(isopropylsulfonyl)phenyl)pyrazin-2-amine]
8 | 1.75 | CN(C)S(=O)(=O)c1ccc(-c2cnc(N)c(-c3cc(-c4ccc(CNC(=N)N)cc4)no3)n2)cc1 [Example 10, 4-(5-amino-6-(3-(4-(guanidinomethyl)phenyl)isoxazol-5-yl)pyrazin-2-yl)-N,N-dimethylbenzenesulfonamide dihydrochloride]
9 | 0.82 | CC(C)S(=O)(=O)c1ccc(-c2cnc(N)c(-c3cc(-c4c(F)cc(CNC(=N)N)cc4F)no3)n2)cc1 [Example 11, 1-(4-(5-(3-amino-6-(4-(isopropylsulfonyl)phenyl)pyrazin-2-yl)isoxazol-3-yl)-3,5-difluorobenzyl)guanidine dihydrochloride]
10 | 1.68 | CN=S(=O)(c1ccc(-c2cnc(N)c(-c3cc(-c4ccc(CNC(=N)N)cc4)no3)n2)cc1)C(C)C (stereo not drawn) [Example 13, 1-(4-(5-(3-amino-6-(4-(N-methylpropan-2-yl-sulfonimido)phenyl)pyrazin-2-yl)isoxazol-3-yl)benzyl)guanidine dihydrochloride]
11 | 1.42 | CNC(=O)Nc1ccc(-c2cc(-c3nc(-c4ccc(S(=O)(=O)C(C)C)cc4)cnc3N)on2)cc1 [Example 14, 1-(4-(5-(3-amino-6-(4-(isopropylsulfonyl)phenyl)pyrazin-2-yl)isoxazol-3-yl)phenyl)-3-methylurea]
12 | 2 | CC(C)S(=O)(=O)c1ccc(-c2cnc(N)c(-c3cc(-c4ccc(NC(N)=O)cc4)no3)n2)cc1 [Example 15, 1-(4-(5-(3-amino-6-(4-(isopropylsulfonyl)phenyl)pyrazin-2-yl)isoxazol-3-yl)phenyl)urea]
13 | 9.74 | CC(C)S(=O)(=O)c1ccc(-c2cnc(N)c(-c3cc(-c4ccc(NC(=N)N)cc4)no3)n2)cc1 [Example 16, 1-(4-(5-(3-amino-6-(4-(isopropylsulfonyl)phenyl)pyrazin-2-yl)isoxazol-3-yl)phenyl)guanidine]
14 | 0.93 | CNC(=N)Nc1ccc(-c2cc(-c3nc(-c4ccc(S(=O)(=O)C(C)C)cc4)cnc3N)on2)cc1 [Example 17, 1-(4-(5-(3-amino-6-(4-(isopropylsulfonyl)phenyl)pyrazin-2-yl)isoxazol-3-yl)phenyl)-3-methylguanidine dihydrochloride]
15 | 1.16 | CCNC(=N)Nc1ccc(-c2cc(-c3nc(-c4ccc(S(=O)(=O)C(C)C)cc4)cnc3N)on2)cc1 [Example 18, 1-(4-(5-(3-amino-6-(4-(isopropylsulfonyl)phenyl)pyrazin-2-yl)isoxazol-3-yl)phenyl)-3-ethylguanidine dihydrochloride]
16 | 1.26 | CNC(=N)Nc1ccc(-c2cc(-c3nc(-c4ccc(S(=O)(=O)C(C)C)cc4)cnc3N)on2)nc1 [Example 19, 1-(6-(5-(3-amino-6-(4-(isopropylsulfonyl)phenyl)pyrazin-2-yl)isoxazol-3-yl)pyridin-3-yl)-3-methylguanidine dihydrochloride]
17 | 1.81 | CNC(=N)Nc1ccc(-c2cc(-c3nc(-c4ccc(S(=O)(=O)C(C)C)cc4)cnc3N)on2)c(F)c1 [Example 20, 1-(4-(5-(3-amino-6-(4-(isopropylsulfonyl)phenyl)pyrazin-2-yl)isoxazol-3-yl)-3-fluorophenyl)-3-methylguanidine dihydrochloride]
18 | 1.31 | CC(C)S(=O)(=O)c1ccc(-c2cnc(N)c(-c3cc(-c4ccc5[nH]c(=O)[nH]c5c4)no3)n2)cc1 [Example 21, 5-(5-(3-amino-6-(4-(isopropylsulfonyl)phenyl)pyrazin-2-yl)isoxazol-3-yl)-1,3-dihydro-2H-benzo[d]imidazol-2-one]
19 | 1.21 | CC(C)S(=N)(=O)c1ccc(-c2cnc(N)c(-c3cc(-c4ccc5[nH]c(=O)[nH]c5c4)no3)n2)cc1 (stereo not drawn) [Example 22, 5-(5-(3-amino-6-(4-(propan-2-ylsulfonimido)phenyl)pyrazin-2-yl)isoxazol-3-yl)-1,3-dihydro-benzimidazol-2-one dihydrochloride]
20 | 0.7 | N=C(N)NCc1ccc(-c2cc(-c3nc(-c4ccc(S(=O)(=O)C5CC5)cc4)cnc3N)on2)cc1 [Example 23, 1-(4-(5-(3-amino-6-(4-(cyclopropylsulfonyl)phenyl)pyrazin-2-yl)isoxazol-3-yl)benzyl)guanidine dihydrochloride]
21 | 1.08 | CC(C)S(=O)(=O)c1ccc(-c2cnc(N)c(-c3cc(-c4ccc(CNC(=N)N)c(F)c4)no3)n2)cc1 [Example 24, 1-(4-(5-(3-amino-6-(4-(isopropylsulfonyl)phenyl)pyrazin-2-yl)isoxazol-3-yl)-2-fluorobenzyl)guanidine dihydrochloride]
22 | 1.98 | CN(C)C(=O)c1ccc(-c2cnc(N)c(-c3cc(-c4ccc(CNC(=N)N)cc4)no3)n2)cc1 [Example 25, 4-(5-amino-6-(3-(4-(guanidinomethyl)phenyl)isoxazol-5-yl)pyrazin-2-yl)-N,N-dimethylbenzamide dihydrochloride]
23 | 0.75 | N=C(N)NCc1ccc(-c2cc(-c3nc(-c4ccc5c(c4)CCS5(=O)=O)cnc3N)on2)cc1 [Example 27, 1-(4-(5-(3-amino)-6-(1,1-dioxo-2,3-dihydrobenzo[b]thiophen-5-yl)pyrazin-2-yl)isoxazol-3-yl)benzyl)guanidine dihydrochloride]
24 | 1.29 | CC(=N)NCc1ccc(-c2cc(-c3nc(-c4ccc(S(=O)(=O)C(C)C)cc4)cnc3N)on2)cc1 [Example 28, N-(4-(5-(3-amino-6-(4-(isopropylsulfonyl)phenyl)pyrazin-2-yl)isoxazol-3-yl)benzyl)acetamidine dihydrochloride]
25 | 3.35 | CC(C)S(=O)(=O)c1ccc(-c2cnc(N)c(-c3cc(-c4ccc(CNC(=N)N)cc4C(F)(F)F)no3)n2)cc1 [Example 30, 1-(4-(5-(3-amino-6-(4-(isopropylsulfonyl)phenyl)pyrazin-2-yl)isoxazol-3-yl)-3-(trifluoromethyl)benzyl)guanidine dihydrochloride]
26 | 4 | CC(C)S(=O)(=O)c1ccc(-c2cnc(N)c(-c3cc(-c4ccc5c(c4)CNC5=O)no3)n2)cc1 [Example 31]
27 | 2.09 | CNCc1ccc(-c2cc(-c3nc(-c4ccc5c(c4)C(F)C(C)(C)S5(=O)=O)cnc3N)on2)cc1 (stereo not drawn) [Example 32, 5-(5-amino-6-(3-(4-((methylamino)methyl)phenyl)isoxazol-5-yl)pyrazin-2-yl)-3-fluoro-2,2-dimethyl-2,3-dihydrobenzo[b]thiophene 1,1-dioxide]
28 | 0.92 | CNCc1ccc(-c2cc(-c3nc(-c4ccc5c(c4)C(F)C(C)(C)S5(=O)=O)cnc3N)no2)cc1 (stereo not drawn) [Example 34, 5-(5-amino-6-(5-(4-((methylamino)methyl)phenyl)isoxazol-3-yl)pyrazin-2-yl)-3-fluoro-2,2-dimethyl-2,3-dihydrobenzo[b]thiophene 1,1-dioxide]

Row | Compound | IC50 [nM]
29 | CC(C)S(=O)(=O)c1ccc(-c2cnc(N)c(-c3cc(-c4ccc5[nH]nnc5c4)no3)n2)cc1 [Example 3, 3-(3-(1H-benzo[d][1,2,3]triazol-5-yl)isoxazol-5-yl)-5-(4-(isopropylsulfonyl)phenyl)pyrazin-2-amine] | 1.6
30 | CC(C)S(=O)(=O)c1ccc(-c2cnc(N)c(-c3cc(-c4ccc(C(=O)NC(=N)N)cc4)no3)n2)cc1 [Example 26, dihydrochloride] | 2.06
